These results are taken from ChEMBL document CHEMBL3860063, “New potently bioactive alkaloids from Crinum erubescens” (Bioorg Med Chem, 2016).

SMILES strings stand for the structures.

One test deals with Plasmodium falciparum. As to the kind of experiment: Antiplasmodial activity against chloroquine/mefloquine-resistant Plasmodium falciparum Dd2 measured after 72 hrs by SYBR Green1-based fluorescence assay. Type of test: functional. As to conditions: Dd2, 72 h.
Test [1] is described as follows: Antiproliferative activity against human A2780 cells measured after 2 days by AlamarBlue assay. Format: functional, cell-based. The settings on record: A2780, 48 h.

Regarding `CO[C@@H]1[C@@H](OC)[C@H](O[C@@H]2CC(=O)[C@@H]3CCN(Cc4cc5c(cc43)OCO5)C(=O)[C@H]2O)O[C@H](CO)[C@H]1OC`, the IC50 in the test on Plasmodium falciparum was 180 nM; in test [1], 16.4 nM.
Take `CO[C@@H]1[C@@H](OC)[C@H](O[C@@H]2CC(=O)[C@@H]3CCN(Cc4cc5c(cc43)OCO5)C(=O)[C@H]2O)O[C@H](C)[C@H]1OC`: the IC50 in the test with Plasmodium falciparum was found to be 260 nM; in test [1] it was 28 nM.
Take `CO[C@H]1[C@@H]2OCOCO[C@H]2[C@H](O[C@@H]2CC(=O)[C@@H]3CCN(Cc4cc5c(cc43)OCO5)C(=O)[C@H]2O)O[C@@H]1C`: the IC50 is 26 nM with Plasmodium falciparum and 25 nM in test [1].
Regarding `CO[C@H]1[C@@H]2OCOCO[C@H]2[C@H](O[C@@H]2CC(=O)[C@@H]3CCN(Cc4cc5c(cc43)OCO5)C(=O)[C@H]2O)O[C@@H]1CO`, the half-maximal inhibitory concentration (IC50) in the test on Plasmodium falciparum was found to be 30 nM; in test [1], 11.1 nM.
For the compound `C[C@@H]1CC[C@H]2[C@@H](C)C(=O)O[C@@H]3O[C@@]4(C)CC[C@@H]1[C@]32OO4` [ARTEMISININ], the IC50 with Plasmodium falciparum amounted to 6 nM.
